Biological target: T1, saT1R1/R3 (Sparus aurata, UniProt A0A671TNH8+A0A671VZB3)
T1 sequence (A0A671TNH8 23-847): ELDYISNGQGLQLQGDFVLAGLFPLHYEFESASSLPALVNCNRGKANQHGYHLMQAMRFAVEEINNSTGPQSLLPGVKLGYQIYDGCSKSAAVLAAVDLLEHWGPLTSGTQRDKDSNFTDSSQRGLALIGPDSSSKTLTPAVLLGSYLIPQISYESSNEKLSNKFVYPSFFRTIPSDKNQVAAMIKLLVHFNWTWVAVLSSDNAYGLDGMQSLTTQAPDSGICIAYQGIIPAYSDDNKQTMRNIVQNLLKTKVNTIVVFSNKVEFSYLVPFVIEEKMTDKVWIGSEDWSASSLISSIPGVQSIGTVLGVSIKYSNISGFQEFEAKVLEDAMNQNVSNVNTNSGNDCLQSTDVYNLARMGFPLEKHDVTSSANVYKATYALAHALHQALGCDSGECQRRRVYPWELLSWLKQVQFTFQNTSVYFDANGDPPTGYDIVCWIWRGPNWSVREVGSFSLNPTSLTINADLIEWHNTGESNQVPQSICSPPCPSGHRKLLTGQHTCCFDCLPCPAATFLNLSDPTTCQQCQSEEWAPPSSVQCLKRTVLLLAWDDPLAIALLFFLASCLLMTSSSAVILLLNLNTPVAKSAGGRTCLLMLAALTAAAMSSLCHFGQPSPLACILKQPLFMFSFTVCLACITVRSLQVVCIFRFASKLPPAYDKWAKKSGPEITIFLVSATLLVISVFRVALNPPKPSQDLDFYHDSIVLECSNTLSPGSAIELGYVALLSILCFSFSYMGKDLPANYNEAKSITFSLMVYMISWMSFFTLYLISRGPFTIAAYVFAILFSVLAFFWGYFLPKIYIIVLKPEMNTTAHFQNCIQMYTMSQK
T1 sequence (A0A671VZB3 24-860): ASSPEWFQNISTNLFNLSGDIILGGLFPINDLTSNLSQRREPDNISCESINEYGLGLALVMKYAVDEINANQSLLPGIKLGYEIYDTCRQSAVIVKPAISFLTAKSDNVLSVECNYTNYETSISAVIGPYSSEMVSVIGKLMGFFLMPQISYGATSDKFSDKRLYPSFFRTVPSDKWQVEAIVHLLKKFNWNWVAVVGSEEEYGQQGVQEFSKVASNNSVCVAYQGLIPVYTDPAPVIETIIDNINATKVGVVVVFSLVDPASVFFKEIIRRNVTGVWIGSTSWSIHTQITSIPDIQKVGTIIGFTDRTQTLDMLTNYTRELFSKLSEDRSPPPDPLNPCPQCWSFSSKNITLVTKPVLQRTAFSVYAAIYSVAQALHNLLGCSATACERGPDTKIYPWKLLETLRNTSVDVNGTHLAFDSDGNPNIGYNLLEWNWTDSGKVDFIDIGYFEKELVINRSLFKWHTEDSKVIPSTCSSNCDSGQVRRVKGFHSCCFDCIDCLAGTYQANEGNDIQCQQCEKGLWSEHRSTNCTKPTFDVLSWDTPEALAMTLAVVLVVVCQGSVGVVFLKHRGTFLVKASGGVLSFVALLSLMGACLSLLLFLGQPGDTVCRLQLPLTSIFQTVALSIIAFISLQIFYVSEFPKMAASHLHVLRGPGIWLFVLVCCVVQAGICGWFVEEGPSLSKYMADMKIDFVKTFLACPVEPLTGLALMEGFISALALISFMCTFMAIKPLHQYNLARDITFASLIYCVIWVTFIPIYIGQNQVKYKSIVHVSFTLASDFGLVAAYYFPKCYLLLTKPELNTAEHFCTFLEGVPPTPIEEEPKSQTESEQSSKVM
Assay: saT1R1/R3 heterodimer transiently transfected in stable pGL3-NFAT-luc-HEK293 (Cl.3) cells, luciferase reporter
Format: cell-based
Details: as molarity; decimal comma
Source text: Figure 6 Amino acid Log-dose response curves of activation in heterologous co-transfected (Cl.3) cells with saT1R1/3 (green dots), saT1R2a/3 (red squares) and saT1R2b/3 (black triangles) heterodimers. Evaluation of L-AA responses was based on the RLU mean ± SEM of four independent determinations normalized to the mean response of the same transfections stimulated with reduced assay medium (Basal Medium Eagle w/o L-glutamate (BME) + 1% FBS), and expressed as the percentage relative to basal levels (BL).
HEK293 cells were cultured in standard medium DMEM (Gibco, Thermo Fisher, Saint Louis, MO, USA) containing 10% FBS, penicillin (100 U/mL) and streptomycin ([…]) at 37 °C, with a humidified atmosphere at 5% CO2. pGL3-NFAT-luc-HEK293 stable clones were generated by co-transfections of pGL3-NFAT-luc and tgCMV/HyTK plasmids (50:1), the latter harboring the hygromycin phosphotransferase gene, using Lipofectamine LTX according to supplier’s protocols (Thermo Fisher, Saint Louis, MO, USA). Initially, HEK293 cells were selected using DMEM containing 400 μg/mL hygromycin B (Sigma, Darmstadt, Germany) in 24-well plates for two weeks; 24 colonies were further grown out in 96-well plates under reduced hygromycin selection (200 µg/mL) for three weeks. Potentially resistant NFAT-luc-HEK293 clones (n = 22) were validated after incubation in assay medium (DMEM + 1% FBS) containing PMA or Ionomycin (Sigma, Darmstadt, Germany) for 18 h (triplicates, 50,000 cells/well). Luciferase activity was quantified with ONE-Glo™ EX Reagent Kit (Promega, Madison, WI, USA) using a 96-microplate TECAN reader (Trading AG, Switzerland).
saT1Rs (saT1R1, saT1R2a, saT1R2b saT1R3) and saGαi1-2 genes were RT-PCR amplified using 5’ and 3’ flanking primers carrying HindIII and XhoI restriction sites, respectively. Gel-purified fragments were cloned into pGEM-T Easy vectors, re-sequenced, digested and subcloned into pcDNA™3 (Invitrogen, Carlsbad, CA, USA). Effective saT1R cloning into pcDNA™3 was further verified by HindIII/XhoI digestion. Transient co-transfections were done in 6-well plates (confluence ~70–80%) using 100 μL of reduced serum medium (Opti-MEM, Gibco, Thermo Fisher, Saint Louis, MO, USA) containing 150 ng of each selected pcDNA™3 construct, 1:10 charge ratio of Enhanced Green Fluorescent expressing construct (EGFP; positive control), and pBluescript II SK (+) vector DNA (Addgene, Watertown, MA, USA) up to 1 µg of totally transfected DNA. Following 24 h incubation, cells were washed with fresh standard medium and plated in polylysine treated plates for additional 24 h. Cells were then stimulated with L-AAs and sugar compounds for 18 h in a reduced assay medium (BME w/o L-glutamate; Gibco, Thermo Fisher, Saint Louis, MO, USA) + 1% FBS), to prevent unspecific Ca^2+/NFAT signaling activation and potential saT1R desensitization. All L-AAs and sugars used for in vitro experiments were obtained from Merck KGaA (Darmstadt, Germany).

SMILES | T1R1/R3 [MSD] maximum stimulation dose
C[C@H](N)C(=O)O [Ala, Alanine] | 1,00 × 10^-1 M
N=C(N)NCCC[C@H](N)C(=O)O [Arg, Arginine] | 1,00 × 10^-5 M
NC(=O)C[C@H](N)C(=O)O [Asn, Asparagine] | 1,00 × 10^-1 M
N[C@@H](CC(=O)O)C(=O)O [Asp, Aspartic acid] | 1,00 × 10^-5 M
N[C@@H](CS)C(=O)O [Cys, Cysteine] | 1,00 × 10^-4 M
NC(=O)CC[C@H](N)C(=O)O [Gln, Glutamine] | 1,00 × 10^-1 M
N[C@@H](CCC(=O)O)C(=O)O [Glu, Glutamic acid] | 1,00 × 10^-2 M
NCC(=O)O [Gly, Glycine] | 1,00 × 10^-1 M
N[C@@H](Cc1c[nH]cn1)C(=O)O [His, Histidine] | 1,00 × 10^-5 M
CC[C@H](C)[C@H](N)C(=O)O [Ile, Isoleucine] | 1,00 × 10^-1 M
CC(C)C[C@H](N)C(=O)O [Leu, Leucine] | 1,00 × 10^-1 M
NCCCC[C@H](N)C(=O)O [Lys, Lysine] | 1,00 × 10^-3 M
CSCC[C@H](N)C(=O)O [Met, Methionine] | 1,00 × 10^-1 M
N[C@@H](Cc1ccccc1)C(=O)O [Phe, Phenylalanine] | 1,00 × 10^-2 M
O=C(O)[C@@H]1CCCN1 [Pro, Proline] | 1,00 × 10^-1 M
N[C@@H](CO)C(=O)O [Ser, Serine] | 1,00 × 10^-1 M
C[C@@H](O)[C@H](N)C(=O)O [Thr, Threonine] | 1,00 × 10^-1 M
N[C@@H](Cc1c[nH]c2ccccc12)C(=O)O [Trp, Tryptophan] | 1,00 × 10^-3 M
N[C@@H](Cc1ccc(O)cc1)C(=O)O [Tyr, Tyrosine] | 1,00 × 10^-3 M
CC(C)[C@H](N)C(=O)O [Val, Valine] | 1,00 × 10^-1 M

Reference: paper PMC7594079, “Insights into the Function and Evolution of Taste 1 Receptor Gene Family in the Carnivore Fish Gilthead Seabream (Sparus aurata)” (International Journal of Molecular Sciences, 2020)
